Test results from PMC6409085, “Three odorant-binding proteins are involved in the behavioral response of Sogatella furcifera to rice plant volatiles” (PeerJ, 2019).
pIC50: −log10 of the molar value. Several values for one entry are separate records, joined by “and”; a condition that tells them apart may be missing. Identical values can stand only once.

What was measured:
Assay in all cases: biochemical
Type in all cases: binding
SfurOBP2 = SfurOBP2 (Sogatella furcifera, UniProt V5T759)
Procedure, shortened: (§1)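 1-NPN displacement assay with odorant competitor at 2–20 µM; protein and probe both 2.0 µM at pH 7.4. Ki is calculated from IC50 using the protein/1-NPN dissociation constant.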

SfurOBP3 = SfurOBP3 (Sogatella furcifera, UniProt V5T818); conditions: for Fluorescence competitive binding assay, fluorescence intensity: OBP3, three replicate columns
Sequence of SfurOBP3 (V5T818 entry or part of it): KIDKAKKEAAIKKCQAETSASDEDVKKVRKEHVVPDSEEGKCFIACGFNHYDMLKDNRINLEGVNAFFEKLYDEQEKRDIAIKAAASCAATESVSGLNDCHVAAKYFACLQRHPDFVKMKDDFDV
Procedure, shortened: as §1

SfurOBP11 = SfurOBP11 (Sogatella furcifera, UniProt V5T6E3)
Sequence of SfurOBP11 (V5T6E3 entry or part of it): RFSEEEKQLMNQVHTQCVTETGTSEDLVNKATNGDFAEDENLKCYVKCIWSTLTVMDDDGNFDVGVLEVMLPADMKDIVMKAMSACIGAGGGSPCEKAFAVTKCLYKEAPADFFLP
Procedure, shortened: as §1

SfurOBP1 = SfurOBP1 (Sogatella furcifera, UniProt V5T8N5); conditions: for Fluorescence competitive binding assay, fluorescence intensity: OBP1, three replicate columns
Sequence of SfurOBP1 (V5T8N5 entry or part of it): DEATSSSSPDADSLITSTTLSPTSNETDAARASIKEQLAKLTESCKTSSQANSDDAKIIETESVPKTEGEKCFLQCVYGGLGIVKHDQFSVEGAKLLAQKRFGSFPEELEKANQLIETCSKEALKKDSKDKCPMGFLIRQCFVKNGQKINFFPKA
Procedure, shortened: as §1

Sequence of SfurOBP2 (V5T759 entry or part of it): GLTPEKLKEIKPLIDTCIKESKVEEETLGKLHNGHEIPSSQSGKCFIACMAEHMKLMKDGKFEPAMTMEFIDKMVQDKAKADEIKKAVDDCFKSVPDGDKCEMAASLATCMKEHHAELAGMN

CCCCCCCCCCCCCCCC [n-hexadecane]
pIC50 (SfurOBP2; SfurOBP2, protein and 1-NPN both 2.0 µM, competitor 2-20 µM, read-out: IC50): 4.76
Fluorescence competitive binding assay, OBP2 (raw fluorescence reading) (SfurOBP2; ligand concentration 2 (unit not given), replicate column 1 of 3): 13495
Fluorescence competitive binding assay, OBP2 (raw fluorescence reading) (SfurOBP2; ligand concentration 2 (unit not given), replicate column 2 of 3): 16165
Fluorescence competitive binding assay, OBP2 (raw fluorescence reading) (SfurOBP2; ligand concentration 2 (unit not given), replicate column 3 of 3): 17504
Fluorescence competitive binding assay, OBP2 (raw fluorescence reading) (SfurOBP2; ligand concentration 4 (unit not given), replicate column 1 of 3): 14292
Fluorescence competitive binding assay, OBP2 (raw fluorescence reading) (SfurOBP2; ligand concentration 4 (unit not given), replicate column 2 of 3): 14770
Fluorescence competitive binding assay, OBP2 (raw fluorescence reading) (SfurOBP2; ligand concentration 4 (unit not given), replicate column 3 of 3): 18258
Fluorescence competitive binding assay, OBP2 (raw fluorescence reading) (SfurOBP2; ligand concentration 6 (unit not given), replicate column 1 of 3): 13188
Fluorescence competitive binding assay, OBP2 (raw fluorescence reading) (SfurOBP2; ligand concentration 6 (unit not given), replicate column 2 of 3): 14373
Fluorescence competitive binding assay, OBP2 (raw fluorescence reading) (SfurOBP2; ligand concentration 6 (unit not given), replicate column 3 of 3): 14976
Fluorescence competitive binding assay, OBP2 (raw fluorescence reading) (SfurOBP2; ligand concentration 8 (unit not given), replicate column 1 of 3): 12682
Fluorescence competitive binding assay, OBP2 (raw fluorescence reading) (SfurOBP2; ligand concentration 8 (unit not given), replicate column 2 of 3): 13401
Fluorescence competitive binding assay, OBP2 (raw fluorescence reading) (SfurOBP2; ligand concentration 8 (unit not given), replicate column 3 of 3): 14572
Fluorescence competitive binding assay, OBP2 (raw fluorescence reading) (SfurOBP2; ligand concentration 10 (unit not given), replicate column 1 of 3): 12390
Fluorescence competitive binding assay, OBP2 (raw fluorescence reading) (SfurOBP2; ligand concentration 10 (unit not given), replicate column 2 of 3): 12956
Fluorescence competitive binding assay, OBP2 (raw fluorescence reading) (SfurOBP2; ligand concentration 10 (unit not given), replicate column 3 of 3): 13308
Fluorescence competitive binding assay, OBP2 (raw fluorescence reading) (SfurOBP2; ligand concentration 12 (unit not given), replicate column 1 of 3): 11320
Fluorescence competitive binding assay, OBP2 (raw fluorescence reading) (SfurOBP2; ligand concentration 12 (unit not given), replicate column 2 of 3): 12682
Fluorescence competitive binding assay, OBP2 (raw fluorescence reading) (SfurOBP2; ligand concentration 12 (unit not given), replicate column 3 of 3): 13112
Fluorescence competitive binding assay, OBP2 (raw fluorescence reading) (SfurOBP2; ligand concentration 14 (unit not given), replicate column 1 of 3): 11586
Fluorescence competitive binding assay, OBP2 (raw fluorescence reading) (SfurOBP2; ligand concentration 14 (unit not given), replicate column 2 of 3): 11754
Fluorescence competitive binding assay, OBP2 (raw fluorescence reading) (SfurOBP2; ligand concentration 14 (unit not given), replicate column 3 of 3): 12906
Fluorescence competitive binding assay, OBP2 (raw fluorescence reading) (SfurOBP2; ligand concentration 16 (unit not given), replicate column 1 of 3): 10605
Fluorescence competitive binding assay, OBP2 (raw fluorescence reading) (SfurOBP2; ligand concentration 16 (unit not given), replicate column 2 of 3): 10448
Fluorescence competitive binding assay, OBP2 (raw fluorescence reading) (SfurOBP2; ligand concentration 16 (unit not given), replicate column 3 of 3): 11282
Fluorescence competitive binding assay, OBP2 (raw fluorescence reading) (SfurOBP2; ligand concentration 18 (unit not given), replicate column 1 of 3): 14498
Fluorescence competitive binding assay, OBP2 (raw fluorescence reading) (SfurOBP2; ligand concentration 18 (unit not given), replicate column 2 of 3): 14899
Fluorescence competitive binding assay, OBP2 (raw fluorescence reading) (SfurOBP2; ligand concentration 18 (unit not given), replicate column 3 of 3): 13250
Fluorescence competitive binding assay, OBP2 (raw fluorescence reading) (SfurOBP2; ligand concentration 20 (unit not given), replicate column 1 of 3): 13545
Fluorescence competitive binding assay, OBP2 (raw fluorescence reading) (SfurOBP2; ligand concentration 20 (unit not given), replicate column 2 of 3): 12591
Fluorescence competitive binding assay, OBP2 (raw fluorescence reading) (SfurOBP2; ligand concentration 20 (unit not given), replicate column 3 of 3): 11415
Fluorescence competitive binding assay, fluorescence intensity (SfurOBP3; ligand concentration 2): 69046 and 56769 and 63691
Fluorescence competitive binding assay, fluorescence intensity (SfurOBP3; ligand concentration 4): 61024 and 72407 and 63576
Fluorescence competitive binding assay, fluorescence intensity (SfurOBP3; ligand concentration 6): 62953 and 54664 and 55739
Fluorescence competitive binding assay, fluorescence intensity (SfurOBP3; ligand concentration 8): 48630 and 46017 and 57385
Fluorescence competitive binding assay, fluorescence intensity (SfurOBP3; ligand concentration 10): 48455 and 41384 and 49192
Fluorescence competitive binding assay, fluorescence intensity (SfurOBP3; ligand concentration 12): 44417 and 51591 and 51023
Fluorescence competitive binding assay, fluorescence intensity (SfurOBP3; ligand concentration 14): 42917 and 40156 and 40042
Fluorescence competitive binding assay, fluorescence intensity (SfurOBP3; ligand concentration 16): 37264 and 50015 and 45340
Fluorescence competitive binding assay, fluorescence intensity (SfurOBP3; ligand concentration 18): 66503 and 59244 and 47400
Fluorescence competitive binding assay, fluorescence intensity (SfurOBP3; ligand concentration 20): 55843 and 55740 and 43544
pIC50 (SfurOBP3; SfurOBP3, protein and 1-NPN both 2.0 µM, competitor 2-20 µM, read-out: IC50): < 4.70
pIC50 (SfurOBP11; SfurOBP11, protein and 1-NPN both 2.0 µM, competitor 2-20 µM, read-out: IC50): < 4.70
Fluorescence intensity, fluorescence competitive binding assay, OBP11 (SfurOBP11; ligand concentration 2, replicate 1): 21809
Fluorescence intensity, fluorescence competitive binding assay, OBP11 (SfurOBP11; ligand concentration 2, replicate 2): 24436
Fluorescence intensity, fluorescence competitive binding assay, OBP11 (SfurOBP11; ligand concentration 2, replicate 3): 21028
Fluorescence intensity, fluorescence competitive binding assay, OBP11 (SfurOBP11; ligand concentration 4, replicate 1): 21555
Fluorescence intensity, fluorescence competitive binding assay, OBP11 (SfurOBP11; ligand concentration 4, replicate 2): 21532
Fluorescence intensity, fluorescence competitive binding assay, OBP11 (SfurOBP11; ligand concentration 4, replicate 3): 20733
Fluorescence intensity, fluorescence competitive binding assay, OBP11 (SfurOBP11; ligand concentration 6, replicate 1): 20973
Fluorescence intensity, fluorescence competitive binding assay, OBP11 (SfurOBP11; ligand concentration 6, replicate 2): 20501
Fluorescence intensity, fluorescence competitive binding assay, OBP11 (SfurOBP11; ligand concentration 6, replicate 3): 20737
Fluorescence intensity, fluorescence competitive binding assay, OBP11 (SfurOBP11; ligand concentration 8, replicate 1): 20324
Fluorescence intensity, fluorescence competitive binding assay, OBP11 (SfurOBP11; ligand concentration 8, replicate 2): 20139
Fluorescence intensity, fluorescence competitive binding assay, OBP11 (SfurOBP11; ligand concentration 8, replicate 3): 20508
Fluorescence intensity, fluorescence competitive binding assay, OBP11 (SfurOBP11; ligand concentration 10, replicate 1): 20121
Fluorescence intensity, fluorescence competitive binding assay, OBP11 (SfurOBP11; ligand concentration 10, replicate 2): 20422
Fluorescence intensity, fluorescence competitive binding assay, OBP11 (SfurOBP11; ligand concentration 10, replicate 3): 20353
Fluorescence intensity, fluorescence competitive binding assay, OBP11 (SfurOBP11; ligand concentration 12, replicate 1): 19850
Fluorescence intensity, fluorescence competitive binding assay, OBP11 (SfurOBP11; ligand concentration 12, replicate 2): 19980
Fluorescence intensity, fluorescence competitive binding assay, OBP11 (SfurOBP11; ligand concentration 12, replicate 3): 19737
Fluorescence intensity, fluorescence competitive binding assay, OBP11 (SfurOBP11; ligand concentration 14, replicate 1): 21701
Fluorescence intensity, fluorescence competitive binding assay, OBP11 (SfurOBP11; ligand concentration 14, replicate 2): 22333
Fluorescence intensity, fluorescence competitive binding assay, OBP11 (SfurOBP11; ligand concentration 14, replicate 3): 21069
Fluorescence intensity, fluorescence competitive binding assay, OBP11 (SfurOBP11; ligand concentration 16, replicate 1): 21665
Fluorescence intensity, fluorescence competitive binding assay, OBP11 (SfurOBP11; ligand concentration 16, replicate 2): 22169
Fluorescence intensity, fluorescence competitive binding assay, OBP11 (SfurOBP11; ligand concentration 16, replicate 3): 22138
Fluorescence intensity, fluorescence competitive binding assay, OBP11 (SfurOBP11; ligand concentration 18, replicate 1): 22525
Fluorescence intensity, fluorescence competitive binding assay, OBP11 (SfurOBP11; ligand concentration 18, replicate 2): 23830
Fluorescence intensity, fluorescence competitive binding assay, OBP11 (SfurOBP11; ligand concentration 18, replicate 3): 23178
Fluorescence intensity, fluorescence competitive binding assay, OBP11 (SfurOBP11; ligand concentration 20, replicate 1): 23218
Fluorescence intensity, fluorescence competitive binding assay, OBP11 (SfurOBP11; ligand concentration 20, replicate 2): 23600
Fluorescence intensity, fluorescence competitive binding assay, OBP11 (SfurOBP11; ligand concentration 20, replicate 3): 23432
Fluorescence competitive binding assay, fluorescence intensity (SfurOBP1; ligand concentration 2 (μM)): 5137 and 5021 and 5229
Fluorescence competitive binding assay, fluorescence intensity (SfurOBP1; ligand concentration 4 (μM)): 5910 and 6306 and 5547
Fluorescence competitive binding assay, fluorescence intensity (SfurOBP1; ligand concentration 6 (μM)): 6300 and 6430 and 6367
Fluorescence competitive binding assay, fluorescence intensity (SfurOBP1; ligand concentration 8 (μM)): 6419 and 6500 and 6466
Fluorescence competitive binding assay, fluorescence intensity (SfurOBP1; ligand concentration 10 (μM)): 6532 and 6517 and 6502
Fluorescence competitive binding assay, fluorescence intensity (SfurOBP1; ligand concentration 12 (μM)): 6620 and 6292 and 6471
Fluorescence competitive binding assay, fluorescence intensity (SfurOBP1; ligand concentration 14 (μM)): 6713 and 6503 and 6353
Fluorescence competitive binding assay, fluorescence intensity (SfurOBP1; ligand concentration 16 (μM)): 6541 and 6507 and 6533
Fluorescence competitive binding assay, fluorescence intensity (SfurOBP1; ligand concentration 18 (μM)): 7558 and 7106 and 6654
Fluorescence competitive binding assay, fluorescence intensity (SfurOBP1; ligand concentration 20 (μM)): 6949 and 7724 and 7337
pIC50 (SfurOBP1; SfurOBP1, protein and 1-NPN both 2.0 µM, competitor 2-20 µM, read-out: IC50): < 4.70
